In patent US12692259B2, “Morpholine-containing and piperazine-containing CXCR4 modulators and uses related thereto” (Emory University, priority 2021, dated 2026):
pIC50: −log10 of the molar value.

Legend:
CYP450 isoforms 3A4 = CYP450 isoforms 3A4 (Homo sapiens, UniProt P08684); settings: cited from earlier work
CYP450 isoforms 2D6 = CYP450 isoforms 2D6 (Homo sapiens, UniProt P10635); settings: cited from earlier work
CYP3A4 = target: T1, CYP3A4 (Homo sapiens, UniProt P08684); assay: Fluorometric CYP450 inhibition assay, CYP3A4; type: in vitro ADME; settings: read-out: CYP450 IC50 (μM) 3A4
T1 construct: purchased Corning; host or cells: insect cells (microsomes)
Procedure: (§1) The CYP450 inhibition assays utilized microsomes from insect cells expressing human recombinant individual cDNA-expressed CYP isoforms 3A4 and 2D6, as well as the fluorogenic probe that produces fluorescent metabolite. Standard inhibitors were co-incubated with fluorogenic substrates and their inhibitory potential (IC50) was determined. Assay conditions in terms of CYP450 protein concentration and time of incubation were standardized, enzyme kinetics parameters of each fluorescent probe substrate were estimated and IC50 values of inhibitors were determined and validated on different days to check reproducibility.
(§2) A 100 mM sodium phosphate buffer was prepared and adjusted to pH 7.4. In a separate falcon tube, a 2× enzyme/substrate (E/S) solution was prepared in phosphate buffer. The final concentration of CYP2D6 (CORNING®) and 7-amido-4-methyl coumaric acid (AMMC) was 10 nM and 4 μM, and CYP3A4 (CORNING®) and 7-benzyloxy-4-(trifluoromethyl) coumarin (BFC) was 20 nM and 40 μM, respectively. In a separate falcon tube, a 2×NADPH regenerating system (NRS) was prepared in phosphate buffer.
(§3) Both enzymatic assays were conducted in a 96-well microtiter plate (Black, CORNING® COSTAR®) with a final volume of 100 μL. Preparation of the plate began with the addition of 74 μL of the E/S in the first well, and 50 μL to all subsequent wells (from 2-11). […] A 1:3 serial dilution of the test compound was conducted by removing 25 μL from the first well and diluting it with the second and so forth until the tenth row. Final concentrations yielded a range from 200 μM-0.01 μM. Well no. 11 contained no inhibitor, and well no. 12 contained no enzyme. Both were used as controls for background fluorescence. The plate was incubated for 30 min at 37° C. After incubation, the reaction was initiated by the addition of 50 μL of the 2×NRS to each well.
(§4) Immediately (within 1 min) the fluorescence was measured using a microplate reader (BIOTEK® Synergy Neo2). […] Data was exported and analyzed using Graph Pad Prism 7. […] The IC50 value was derived after the data was fitted on a 10-point curve using a four-parameter logistic regression model.

[1] = Metabolic stability assay, human liver microsomes (HLM); type: in vitro ADME; settings: 10 min
Source text: Controls were processed and analyzed like the test compounds.

CXCR4 [2] = target: T2, CXCR4 (Homo sapiens, UniProt P61073); assay: cAMP assay in CXCR4-CHO-Glo cells (GloSensor, forskolin + SDF-1α); type: cell-based; design: expressed in transfected cells
Source text: Materials, reagents, and instrument—Advanced DMEM (Gibco), trypsin EDTA (0.05%, phenol red), L-glutamine, HBSS buffer with and without Ca^2+/Mg^2+ (Gibco), antibiotic-antimycotic (Gibco), hygromycin B, and geneticin selective antibiotic (G418 sulfate) were purchased from Invitrogen. Forskolin (Tocris), SDF-1α (R&D Systems), HEPES (Sigma Aldrich), FBS (Atlanta Biologicals), D-luciferin (Gold Biotechnology), sterile 60 mm tissue culture dishes, and 96-well sterile tissue culture plates were purchased from Corning.
The assay targeted CXCR4 expressed in CHO-gloSensor cells. It monitored GPCR activation based on forskolin-stimulated cAMP production in cells. The assay used a genetically encoded biosensor with its cAMP binding domain fused to luciferase. Binding of cAMP to the cAMP binding domain changed the conformation of the biosensor, leading to the activation of luciferase. The intensity of the luciferase signal (light output) resulted from the oxidation of D-luciferin to oxyluciferin is proportional to the amount of cAMP produced in the cells.
The assay was performed in triplicate using live cells in 96-well tissue culture plates. Cells were pre-incubated in the dark at room temperature for one hour in the presence of D-luciferin. Bioluminescence was quantified before and after the agonist/antagonist addition. Stock solution of forskolin and SDF-1a, was prepared in Locke-Luc buffer. Stock solutions of the test compounds were prepared in DMSO (10 mM); they were diluted by Locke's buffer for use in the assay.
CHO-Glo cells, a cell line stably expressing the GloSensor cAMP biosensor (Promega), were transfected with cDNA encoding human CXCR4 in Pires-AcGFP1 (Clontech) and a stable cell line was isolated (CXCR4-CHO-Glo cells). The CXCR4-CHO-Glo cells were grown to confluency on 60 mm tissue culture dishes. After trypsinization, the cells were plated on 96-well plates and incubated overnight. The next day, culture media in each well was aspirated and replaced with 100 μL Locke's buffer containing 4 mM D-luciferin, followed by incubation in the dark for one hour. Before the addition of agonist/antagonist, each plate was read five times at 2 min intervals to obtain basal bioluminescence values from each well. The average of these five pre-readings was used to normalize each well's response to account for differences in GloSensor expression and cell density. After five pre-readings, cAMP formation was initiated with the addition of 50 μL solution of test compound (TC) in Locke Luc buffer containing forskoline and SDF-1α. […] Luminescence was measured immediately after the addition of the antagonist solution. The measurements were taken every two minutes for 30 minutes in kinetics mode after antagonist addition. IC50 values were calculated from the 4-parameter logistic equation using Prism GraphPad.

CYP2D6 = target: T3, CYP2D6 (Homo sapiens, UniProt P10635); assay: Fluorometric CYP450 inhibition assay, CYP2D6; type: in vitro ADME; settings: read-out: CYP450 IC50 (μM) 2D6
T3 construct: purchased Corning; host or cells: insect cells (microsomes)
Procedure: as §1, §2, §3, §4

in vitro = settings: mouse, 10 min, 3 µM, pH 7.4
Procedure: Metabolic stability assay was performed at Emory University's Department of Chemistry or by Bristol Myers Squibb. The method used by Emory University's Department of Chemistry is described below.
Each method was developed in the presence of an internal standard (ISTD) d5-7-ethoxy coumarin. The column temperature was maintained at 40° C. for most of the samples otherwise noted. The detection was operated in the Agilent JetStream electrospray positive ionization using multiple reaction monitoring mode (MRM).
Other MS conditions were as follows: dwell time 100 ms; gas flow 10 L/min; nebulizer pressure 45 psi; delta EMV 200 V; fragmentor voltage and collision energy for individual compounds vary.
Test compounds were dissolved in 100% DMSO or 100% MeOH to make 10 mM stock solutions. Verapamil (Sigma Aldrich) aided as a positive control and was dissolved in 100% DMSO to make 10 mM stock solutions. The 10 mM stock solution of test and control compounds were further diluted in potassium phosphate buffer (100 mM, pH 7.4) to 500 μM to ensure the organic solvent content was <0.2%. Human liver microsomes (HLMs) were purchased from Xenotech at 20 mg/mL. NADPH (Sigma Aldrich) 10 mM stocks were prepared in deionized water.
The HLM assay was prepared in a 1.5 mL Eppendorf tube with a final volume of 1100 μL for duplicate runs. Each reaction contained phosphate buffer (928.4 μL), liver microsomes (55 μL), and test compound resulting in a final concentration of 3 μM (6.6 μL of 500 μM). The reaction was initiated with 110 μL of 10 mM NADPH. […] Before centrifugation each of the aliquoted tubes were vortexed to make sure compounds were in the solution. The aliquots were centrifuged at 12,000 g for 5 min and the supernatant removed and placed in an LC-MS vial. Each time point was assessed using LC-MS and the area, based on the extracted ion, was integrated with respect to the ISTD. […] A no-NADPH negative control with test or control compound was performed in a single run (150 μL) at the longest time point. Controls were processed and analyzed like the test compounds. Each time point was run in duplicates followed by in-between blank washes to avoid the carryover and to equilibrate the column.
The MLM assay was performed using the same procedures as those described above for the HLM assay.

PAMPA assay = type: in vitro ADME; settings: pH 7.4
Procedure: PAMPA assay was performed by BioAssay Systems Services or Bristol Myers Squibb. The method used by BioAssay Systems Services is described below.
Stock solutions in DMSO for all compounds (10 mM) were thawed. The assay was performed in duplicate by following the PAMPA-096 procedure for sample plating. 4% Lecithin in dodecane solution was prepared by resuspending the dried lecithin with 750 μL dodecane. PBS pH 7.4 was used as the diluent. Two sets of plates and equilibrium solutions were incubated for 4 hours at room temperature. Acceptor and equilibrium solutions were analyzed in a UV plate. OD280 nm was used for High Permeability Control (chloramphenicol). OD270 nm was used for Medium Permeability Control (diclofenac) and Low Permeability Control (theophylline). OD254 nm was used for the test compounds.
Data analysis was performed by using the peak absorbance for each respective test compound and Permeability Control to determine the Permeability Rate (Pe) via the following equation: […]
where ODA is the absorbance of Acceptor Solution, ODE is the absorbance of the Equilibrium Standard, and C is determined by the equation below: […]
where Donor Volume (VD) is 0.2 cm^3, Acceptor Volume (VA) is 0.3 cm^3, and Membrane Area (Area) is 0.24 cm^2.

CXCR4 [3] = target: T2, CXCR4; assay: Calcium flux assay (antagonist mode, SDF-1α challenge); type: cell-based; design: Eurofins or Bristol Myers Squibb (contract assay); settings: read-out: CXCR4 Ca^+2 Flux IC50
Procedure: Calcium flux assay was performed by Eurofins or Bristol Myers Squibb. The method used by Eurofins is described below.
Compound plate preparation: Vehicle controls and positive controls were prepared to ensure all assays were properly controlled. All wells were prepared using the Eurofins Discovery Services GPCRProfiler® Assay Buffer. The GPCRProfiler® Assay Buffer was a modified Hanks Balanced Salt Solution (HBSS) where HBSS was supplemented to contain 20 mM HEPES and 2.5 mM Probenecid at pH 7.4.
Agonist assay (first addition): Compound(s) supplied were plated in duplicate for each concentration assayed. During the agonist assay, the concentration(s) reflects accommodation for the dilution of compound during the antagonist assay. Please see below for further details. […] The reference agonist for each GPCR was included at Emax (the concentration where the reference agonist elicited a maximal response). The agonist assay was conducted on a FLIPR^TETRA instrument where the test compound(s), vehicle controls, and reference agonist were added to the assay plate after a fluorescence/luminescence baseline was established. The agonist assay was a total of 180 seconds and was used to assess each compound's ability to activate each GPCR assayed. Upon completion of the three minute agonist assay, the assay plate was incubated at 25° C. for a further two minutes. After the incubation period the antagonist assay was initiated.
The antagonist assay was conducted using the same assay plate that was used for the agonist assay. The antagonist assay was conducted on a FLIPR^TETRA instrument where vehicle controls and challenge concentration of reference agonist were added to appropriate wells. The antagonist assay was a total of 180 seconds and was used to assess each compound's ability to inhibit each GPCR assayed.
Data Processing—All plates were subjected to appropriate baseline corrections. Once baseline corrections were processed, maximum fluorescence/luminescence values were exported, and data manipulated to calculate percentage activation and percentage inhibition. […] Data manipulation calculation is as followed: ((Max RLU)−(Baseline Avg.))/((Positive Avg.)−(Baseline Avg.)).

T3 sequence (P10635 whole entry): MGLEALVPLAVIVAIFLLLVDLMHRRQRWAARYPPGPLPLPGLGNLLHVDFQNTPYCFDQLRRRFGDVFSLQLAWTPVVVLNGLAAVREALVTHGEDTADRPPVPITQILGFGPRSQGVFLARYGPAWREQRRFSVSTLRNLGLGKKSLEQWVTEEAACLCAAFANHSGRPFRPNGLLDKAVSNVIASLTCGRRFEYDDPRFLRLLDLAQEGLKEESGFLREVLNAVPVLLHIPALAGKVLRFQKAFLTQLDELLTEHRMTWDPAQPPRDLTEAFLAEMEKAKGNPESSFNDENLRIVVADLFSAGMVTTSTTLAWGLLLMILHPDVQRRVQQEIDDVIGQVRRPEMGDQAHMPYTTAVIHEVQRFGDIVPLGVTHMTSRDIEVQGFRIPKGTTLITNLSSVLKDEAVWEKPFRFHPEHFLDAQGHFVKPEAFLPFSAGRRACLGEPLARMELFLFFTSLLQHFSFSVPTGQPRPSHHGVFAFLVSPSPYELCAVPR
T1 sequence (P08684 whole entry): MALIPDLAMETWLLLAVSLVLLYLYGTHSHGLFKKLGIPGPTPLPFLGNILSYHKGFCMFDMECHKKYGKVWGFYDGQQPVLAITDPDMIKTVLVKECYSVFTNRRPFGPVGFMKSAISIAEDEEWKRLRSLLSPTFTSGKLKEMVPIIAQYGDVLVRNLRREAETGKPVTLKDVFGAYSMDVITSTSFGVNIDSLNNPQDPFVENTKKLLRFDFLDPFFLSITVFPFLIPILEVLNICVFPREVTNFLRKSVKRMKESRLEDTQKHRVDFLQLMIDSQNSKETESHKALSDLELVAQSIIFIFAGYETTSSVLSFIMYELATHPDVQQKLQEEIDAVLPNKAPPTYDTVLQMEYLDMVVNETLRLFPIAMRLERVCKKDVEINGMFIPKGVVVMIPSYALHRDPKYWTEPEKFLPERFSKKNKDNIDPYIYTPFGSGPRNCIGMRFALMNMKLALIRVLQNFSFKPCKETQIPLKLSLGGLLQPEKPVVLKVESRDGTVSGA
T2 sequence (P61073 whole entry): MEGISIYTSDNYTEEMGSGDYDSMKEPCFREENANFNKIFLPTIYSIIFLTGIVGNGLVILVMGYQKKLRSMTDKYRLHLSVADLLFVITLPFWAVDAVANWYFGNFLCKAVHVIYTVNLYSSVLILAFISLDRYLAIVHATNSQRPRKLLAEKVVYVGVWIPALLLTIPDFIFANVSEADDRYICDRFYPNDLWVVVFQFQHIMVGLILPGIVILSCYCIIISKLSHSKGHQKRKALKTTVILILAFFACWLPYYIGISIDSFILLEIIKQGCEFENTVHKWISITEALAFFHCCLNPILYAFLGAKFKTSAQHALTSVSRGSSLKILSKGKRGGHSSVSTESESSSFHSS
Chain of CYP450 isoforms 2D6 (P10635 whole entry, canonical isoform): as the sequence (P10635 whole entry) above
Chain of CYP450 isoforms 3A4 (P08684 whole entry, canonical isoform): as the sequence (P08684 whole entry) above

| Compound | inhibition of CYP450 isoform 3A4 (CYP450 isoforms 3A4) | inhibition of CYP450 isoform 2D6 (CYP450 isoforms 2D6) | IC50 (CYP3A4) [µM] | Liver Microsomes % rem. @ 10 min. H [1] [%] | pIC50 (CXCR4 [2]) | IC50 (CYP2D6) [µM] | Liver Microsomes % rem. @ 10 min. M (in vitro) [%] | Papp at 4 h (PAMPA assay) [×10⁻⁶ cm/s] | pIC50 (CXCR4 [3]) |
| --- | --- | --- | --- | --- | --- | --- | --- | --- | --- |
| NCCCCN(Cc1nc2ccccc2[nH]1)[C@H]1CCCc2cccnc21 [AMD11070, mavorixafor] | significant inhibition | significant inhibition | – | – | – | – | – | – | – |
| CN(C[C@H]1Cc2c(cccc2N2CCN(C(=O)OCc3ccccc3)CC2)CN1)[C@H]1CCCc2cccnc21 [EMU-291] | – | – | > 20 | 35.6 | 5.63 | > 20 | 66.4 | – | – |
| c1ccc2c(c1)CN[C@@H](CN(CCCCN1CCOCC1)[C@H]1CCCc3cccnc31)C2 [EMU-178] | – | – | > 20 | 52.6 | – | 0.44 | 3.68 | 21.2 | 7.08 |
| c1cnc2c(c1)CN[C@H](CN(CCCCN1CCOCC1)[C@@H]1CCCc3cccnc31)C2 [EMU-204, (R)—N-(4-morpholinobutyl)-N—(((S)-5,6,7,8-tetrahydro-1,6-naphthyridin-7-yl)methyl)-5,6,7,8-tetrahydroquinolin-8-amine] | – | – | > 20 | 100 | – | > 20 | 19.6 | 21.5 | 6.57 |
